The nature of series [1]: PK study in monkeys (intravenous and oral). Type of series: in vivo, cynomolgus monkeys. Here is the method:
Male cynomolgus monkeys were supplied from Prestasi Fauna Nusantara Ltd. (Jakarta, Indonesia) and were housed at Shin Nippon Biomedical Laboratories, Ltd. The PK study was performed in a cross-over design with 7 days interval between the doses for monkeys aged 3–4 years old. Monkeys were fasted a day before the PK study and feeding was resumed 4 h postdose. Dosing solution of lenvatinib used was the same as that in the other animal PK studies. Lenvatinib was intravenously administered at the dose of 3 mg/kg via cephalic vein. In oral administration, lenvatinib at 3 mg/kg was dosed by using a nasogastric catheter, followed by giving 30 mL of water to flush the remaining dosing solution in the catheter. The number of monkeys at each dose was four. Approximately 0.5 mL of blood samples were serially collected from the femoral vein using a heparinized syringe at pre-dose, and at 5, 15 and 30 min, and 1, 2, 4, 6, 8, 12 and 24 h post-dose. Plasma sample preparation and sample storage were the same as those in the other PK studies.
PK parameters of lenvatinib were estimated by model independent analysis using a WinNonlin program (Version 4.1, Pharsight Corporation, Mountain View, CA). The time to reach the maximum plasma concentration (Tmax) and the maximum plasma concentration (Cmax) values were obtained directly from the plasma concentration data. Terminal half-life (T1/2) was calculated by ln2/ke, where ke is the slope of the regression line that fits the portion of the terminal phase (at least three time points) in the log-linear concentration–time curve. AUC0–t and AUMC0–t, the area under the concentration–time curves and the area under the first moment curve, from time = zero to time = t, respectively, were calculated using the lenvatinib concentrations in plasma by the linear/log trapezoidal method. AUC0–inf was calculated by AUC0–t + Ct/ke, and AUMC0–inf was AUMC0–t + Ct × t/ke + Ct/(ke)^2, where Ct is the last measurable concentration at time = t. The plasma concentration at time zero for the intravenous dose was extrapolated, while zero was used for the oral doses. Mean residence time (MRT), total plasma clearance (CLtot) and the volume of distribution at steady state (Vdss) were calculated by AUMC0–inf/AUC0–inf, Dose/AUC0–inf and CLtot × MRT, respectively. Oral bioavailability (F) was estimated by comparing dose-normalized AUC0–inf after oral (AUC0–inf.po) and intravenous (AUC0–inf.iv) administration as follows: F (%) = (AUC0–inf.po/AUC0–inf.iv) × 100.

Series [2] concerns plasma protein. Kind of series: in vitro plasma protein binding, rats. Type of series: in vitro ADME.
Series [3] has as its system plasma protein. Kind of series: in vitro plasma protein binding, monkeys. The class given is in vitro ADME.
The nature of series [4]: Stability of lenvatinib in rat plasma and processed samples. Type of series: physicochemical, rats. The following applies: for Processed sample stability, mean percentage bias from the theoretical values: processed rat plasma samples, 4 °C, 7 days. Here is the method: Calibration samples and QC samples for the reproducibility assessment were prepared by spiking 0.05 mL of the working standard solutions to blank plasma (0.05 mL), and QC samples for the stability assessment were prepared by fortifying 0.05 mL of the solution to 1.5 mL of bank plasma. Lenvatinib concentrations in plasma were 0.005, 0.01, 0.03, 0.1, 0.3, 1, 3, 10, 30, and 100 μg/mL for the calibration samples, and were 0.005, 0.01, 1, and 100 μg/mL for the QC samples for reproducibility assessment. Lenvatinib concentrations of QC samples for the stability assessment were 0.01, 1, and 80 μg/mL.
The developed method for the determination of lenvatinib concentrations in plasma was validated and the following validation parameters including linearity, selectivity, intra- and inter-batch reproducibility, extraction recovery, and stability were evaluated in accordance with the bioanalytical guidelines by United States Food and Drug Administration (US-FDA)[7]. The peak height ratios of lenvatinib to the IS of calibration samples were plotted against the corresponding nominal concentrations of lenvatinib. The calibration curve was prepared by the least square method with 1/(concentration)^2 as the weighting factor. In the linearity assessment, accuracy of each calibration sample was determined to ensure that relative error (RE) at each concentration was within ± 15% (within ± 20% at the LLOQ). […] Intra-batch accuracy and precision were evaluated using QC samples at the four concentrations, LLOQ, low QC (LQC), mid QC (MQC), and ULOQ. […] Inter-batch accuracy and precision were evaluated by testing a single sample at each concentration across five batches (n = 5 in total). […] Extraction recoveries of lenvatinib and the IS from plasma samples of the four species were evaluated. The recoveries of lenvatinib at the low, mid, and high QC levels (triplicates per concentration), and that of the IS (0.5 μg/mL) were determined. […] Stability of lenvatinib in plasma and processed samples was assessed at the low and high QC levels. Lenvatinib concentrations in samples after storage were compared to the theoretical concentrations and RE values were calculated. […] Freeze–thaw stability in plasma was evaluated up to three freeze–thaw cycles and frozen stability in plasma was evaluated at − 15 °C or below for 4 weeks (mice, rats, and dogs) or 6 weeks (monkeys). Stability in processed samples was assessed at 4 °C for 7 days. Stability of lenvatinib in the standard solutions was evaluated for the stock (100 μg/mL) and the working solution (5 ng/mL). The stability of the IS solution (0.5 μg/mL) was also assessed. […]

The mark [5] stands for this setting: male, cynomolgus monkey, plasma, intravenous 3 mg/kg.
The mark [6] stands for this setting: male, cynomolgus monkey, plasma, oral 3 mg/kg.
Where [7] appears, read: male, cynomolgus, cynomolgus monkey, plasma, oral 3 mg/kg.

We go through 1 molecule from PMC10205807, “Cross-species comparison in nonclinical pharmacokinetics of lenvatinib by a simple HPLC with ultraviolet detection” (Scientific Reports, 2023).

Consider `COc1cc2nccc(Oc3ccc(NC(=O)NC4CC4)c(Cl)c3)c2cc1C(N)=O` [lenvatinib, Lenvatinib], for which the “CLint (hepatic intrinsic clearance)” value in series [1] (estimated from oral PK, Fa and Fg assumed unity, BW 5 kg) is recorded as 37,063 mL/h. In addition, the MRT turned out to be 3.32 ± 0.15 h in series [1] (setting [5]) and 4.23 ± 0.31 h in series [1] (setting [6]). In addition, the half-life in series [1] (setting [5]) is 4.28 ± 0.34 h; in series [1] (setting [7]), 4.07 ± 0.29 h. Also, the concentration in series [1] (setting [6]) peaked (Cmax) at 2500 ± 450 ng/mL. Further, the time of peak concentration (Tmax) in series [1] (male, cynomolgus monkey, plasma, oral 3 mg/kg, median (range)) worked out at 2 h. For the same molecule, the AUC(0-inf) in series [1] (male, cynomolgus, cynomolgus monkey, plasma, intravenous 3 mg/kg) was 12900 ± 1060 ng·h/mL; in series [1] (setting [7]), 10300 ± 1510 ng·h/mL. In series [1] (male, cynomolgus, cynomolgus monkey, plasma, intravenous 3 mg/kg, extrapolated), the C0 is 5170 ± 949 ng/mL. For the same molecule, the clearance in series [1] (male, cynomolgus, cynomolgus monkey, plasma, intravenous 3 mg/kg, read-out: CLtot (converted)) was 3.97 mL/min/kg. For the same molecule, the Vd in series [1] (male, cynomolgus, cynomolgus monkey, plasma, intravenous 3 mg/kg, read-out: Vdss) turned out to be 0.794 ± 0.0882 L/kg. In series [1] (male, cynomolgus, cynomolgus monkey, plasma, oral 3 mg/kg vs intravenous 3 mg/kg, read-out: F (oral bioavailability)), the bioavailability is 78.4 ± 5.4%. In addition, the fraction unbound at 0.3 μg/mL with plasma protein [2] (rat plasma, 0.3 μg/mL) is 0.019; with plasma protein [3] (monkey plasma, 0.3 μg/mL) it was 0.039. The fraction unbound with plasma protein [2] (rat, plasma, rats, 0.3–30 μg/mL, read-out: average fp (unbound fraction in plasma)) came out at 0.02; with plasma protein [3] (monkey, plasma, monkeys, 0.3–30 μg/mL, read-out: average fp (unbound fraction in plasma)), 0.0394. Also, the “Processed sample stability, mean percentage bias from the theoretical values” in series [4] (HQC 80 μg/mL) was determined as 0.3%; in series [4] (MQC 1 μg/mL) it was 0.2%. In addition, in series [4] (rat plasma, 3 cycles, MQC 1 μg/mL), the “Freeze/thaw stability, mean percentage bias from the theoretical values” turned out to be 3.6%. Moreover, the “Frozen stability, mean percentage bias from the theoretical values” in series [4] (rat plasma, below − 15 °C, 4 weeks, LQC 0.01 μg/mL) worked out at 1.0%.
